System: 966289-007-R4-J1-PDC complex spheroid viability
Assay: Anticancer human tumor 966289-007-R4-J1-PDC patient-derived pancreatic adenocarcinoma cell line growth inhibition [RAS]
Conditions: for IC50: curve of first compound; for viability, T/C: stronger effect = lower value
Method in brief: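 Tumour cells grown as complex spheroids with HUVEC endothelial cells and mesenchymal stem cells, treated with RAS pathway inhibitor combinations. Each agent spans half-log steps from near clinical Cmax, or 10 microM where Cmax is unknown.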
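Also: spheroids exposed to agents for one week before readout.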
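For viability, T/C in this document: percent viability relative to DMSO vehicle control wells as 100%.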

Q: What does the source list for `CCc1c2c(nc3ccc(O)cc13)-c1cc3c(c(=O)n1C2)COC(=O)[C@]3(O)CC` + C=CC(=O)N1CCN(c2nc(OCC3CCCN3C)nc3c(F)c(-c4nc(N)cc(C)c4C(F)(F)F)c(Cl)cc23)C(C)C1?
A: IC50 (second compound 0.00316 µM): 1.5 nM; IC50 (second compound 0.01 µM): 1.38 nM; IC50 (second compound 0.0316 µM): 1.34 nM; IC50 (second compound 0.1 µM): 1.22 nM; IC50 (second compound 0.316 µM): 1.31 nM; IC50 (second compound 1 µM): 1.12 nM; viability, T/C (second compound 0.00316 µM, first compound 0.000949 µM): 82%; viability, T/C (second compound 0.00316 µM, first compound 0.003 µM): 1.8%; viability, T/C (second compound 0.00316 µM, first compound 0.00949 µM): 0.98%; viability, T/C (second compound 0.00316 µM, first compound 0.03 µM): 0.95%; viability, T/C (second compound 0.00316 µM, first compound 0.0949 µM): 0.87%; viability, T/C (second compound 0.00316 µM, first compound 0.3 µM): 0.85%; viability, T/C (second compound 0.01 µM, first compound 0.000949 µM): 72.8%; viability, T/C (second compound 0.01 µM, first compound 0.003 µM): 2.38%; viability, T/C (second compound 0.01 µM, first compound 0.00949 µM): 0.97%; viability, T/C (second compound 0.01 µM, first compound 0.03 µM): 1.12%; viability, T/C (second compound 0.01 µM, first compound 0.0949 µM): 0.92%; viability, T/C (second compound 0.01 µM, first compound 0.3 µM): 0.91%; viability, T/C (second compound 0.0316 µM, first compound 0.000949 µM): 70.5%; viability, T/C (second compound 0.0316 µM, first compound 0.003 µM): 2.51%; viability, T/C (second compound 0.0316 µM, first compound 0.00949 µM): 1.14%; viability, T/C (second compound 0.0316 µM, first compound 0.03 µM): 0.91%; viability, T/C (second compound 0.0316 µM, first compound 0.0949 µM): 0.87%; viability, T/C (second compound 0.0316 µM, first compound 0.3 µM): 0.86%; viability, T/C (second compound 0.1 µM, first compound 0.000949 µM): 63.4%; viability, T/C (second compound 0.1 µM, first compound 0.003 µM): 2.05%; viability, T/C (second compound 0.1 µM, first compound 0.00949 µM): 1.09%; viability, T/C (second compound 0.1 µM, first compound 0.03 µM): 0.89%; viability, T/C (second compound 0.1 µM, first compound 0.0949 µM): 0.99%; viability, T/C (second compound 0.1 µM, first compound 0.3 µM): 0.86%; viability, T/C (second compound 0.316 µM, first compound 0.000949 µM): 68.3%; viability, T/C (second compound 0.316 µM, first compound 0.003 µM): 2.24%; viability, T/C (second compound 0.316 µM, first compound 0.00949 µM): 1.14%; viability, T/C (second compound 0.316 µM, first compound 0.03 µM): 1.03%; viability, T/C (second compound 0.316 µM, first compound 0.0949 µM): 0.87%; viability, T/C (second compound 0.316 µM, first compound 0.3 µM): 1.11%; viability, T/C (second compound 1 µM, first compound 0.000949 µM): 58.1%; viability, T/C (second compound 1 µM, first compound 0.003 µM): 1.43%; viability, T/C (second compound 1 µM, first compound 0.00949 µM): 1.03%; viability, T/C (second compound 1 µM, first compound 0.03 µM): 0.98%; viability, T/C (second compound 1 µM, first compound 0.0949 µM): 0.91%; viability, T/C (second compound 1 µM, first compound 0.3 µM): 0.97%

Q: Which IC50 (second compound 0.00316 µM) does the source give for `CCN1CCN(Cc2ccc(Nc3ncc(F)c(-c4cc(F)c5nc(C)n(C(C)C)c5c4)n3)nc2)CC1` + C=CC(=O)N1CCN(c2nc(OCC3CCCN3C)nc3c(F)c(-c4nc(N)cc(C)c4C(F)(F)F)c(Cl)cc23)C(C)C1 here?
A: > 1000 nM

Q: What about the IC50 (second compound 0.01 µM) of the same compound?
A: > 1000 nM

Q: What about the IC50 (second compound 0.0316 µM) of the same compound?
A: > 1000 nM

Q: What about the IC50 (second compound 0.1 µM) of the same compound?
A: > 1000 nM

Q: What about the IC50 (second compound 0.316 µM) of the same compound?
A: > 1000 nM

Q: What about the IC50 (second compound 1 µM) of the same compound?
A: > 1000 nM

Q: What about the viability, T/C (second compound 0.00316 µM, first compound 0.00316 µM) of the same compound?
A: 109%

Q: And the viability, T/C (second compound 0.00316 µM, first compound 0.01 µM)?
A: 110%

Q: And the viability, T/C (second compound 0.00316 µM, first compound 0.0316 µM)?
A: 101%

Q: And the viability, T/C (second compound 0.00316 µM, first compound 0.1 µM)?
A: 95.8%

Q: What about the viability, T/C (second compound 0.00316 µM, first compound 0.316 µM) of the same compound?
A: 83.5%

Q: What about the viability, T/C (second compound 0.00316 µM, first compound 1 µM) of the same compound?
A: 76.2%

Q: And the viability, T/C (second compound 0.01 µM, first compound 0.00316 µM)?
A: 96%

Q: What about the viability, T/C (second compound 0.01 µM, first compound 0.01 µM) of the same compound?
A: 110%

Q: And the viability, T/C (second compound 0.01 µM, first compound 0.0316 µM)?
A: 120%

Q: What about the viability, T/C (second compound 0.01 µM, first compound 0.1 µM) of the same compound?
A: 107%

Q: What about the viability, T/C (second compound 0.01 µM, first compound 0.316 µM) of the same compound?
A: 99.1%

Q: And the viability, T/C (second compound 0.01 µM, first compound 1 µM)?
A: 72.6%

Q: What about the viability, T/C (second compound 0.0316 µM, first compound 0.00316 µM) of the same compound?
A: 116%

Q: What about the viability, T/C (second compound 0.0316 µM, first compound 0.01 µM) of the same compound?
A: 126%

Q: What about the viability, T/C (second compound 0.0316 µM, first compound 0.0316 µM) of the same compound?
A: 106%

Q: And the viability, T/C (second compound 0.0316 µM, first compound 0.1 µM)?
A: 113%

Q: And the viability, T/C (second compound 0.0316 µM, first compound 0.316 µM)?
A: 84.8%

Q: And the viability, T/C (second compound 0.0316 µM, first compound 1 µM)?
A: 72.8%

Q: What about the viability, T/C (second compound 0.1 µM, first compound 0.00316 µM) of the same compound?
A: 107%

Q: What about the viability, T/C (second compound 0.1 µM, first compound 0.01 µM) of the same compound?
A: 121%

Q: And the viability, T/C (second compound 0.1 µM, first compound 0.0316 µM)?
A: 121%

Q: And the viability, T/C (second compound 0.1 µM, first compound 0.1 µM)?
A: 109%

Q: What about the viability, T/C (second compound 0.1 µM, first compound 0.316 µM) of the same compound?
A: 78.8%

Q: And the viability, T/C (second compound 0.1 µM, first compound 1 µM)?
A: 78.7%

Q: What about the viability, T/C (second compound 0.316 µM, first compound 0.00316 µM) of the same compound?
A: 106%

Q: What about the viability, T/C (second compound 0.316 µM, first compound 0.01 µM) of the same compound?
A: 103%

Q: What about the viability, T/C (second compound 0.316 µM, first compound 0.0316 µM) of the same compound?
A: 120%

Q: And the viability, T/C (second compound 0.316 µM, first compound 0.1 µM)?
A: 105%

Q: What about the viability, T/C (second compound 0.316 µM, first compound 0.316 µM) of the same compound?
A: 89.4%

Q: And the viability, T/C (second compound 0.316 µM, first compound 1 µM)?
A: 73.4%

Q: And the viability, T/C (second compound 1 µM, first compound 0.00316 µM)?
A: 98.5%

Q: And the viability, T/C (second compound 1 µM, first compound 0.01 µM)?
A: 98.6%

Q: And the viability, T/C (second compound 1 µM, first compound 0.0316 µM)?
A: 120%

Q: What about the viability, T/C (second compound 1 µM, first compound 0.1 µM) of the same compound?
A: 102%

Q: What about the viability, T/C (second compound 1 µM, first compound 0.316 µM) of the same compound?
A: 79%

Q: What about the viability, T/C (second compound 1 µM, first compound 1 µM) of the same compound?
A: 77.2%

Q: For `CC(=O)OC12COC1CC(O)C1(C)C(=O)C(O)C3=C(C)C(OC(=O)C(O)C(NC(=O)OC(C)(C)C)c4ccccc4)CC(O)(C(OC(=O)c4ccccc4)C21)C3(C)C` (stereo unspecified) + CCn1c(-c2cccnc2C(C)OC)c2c3cc(ccc31)N1CCOC(CC(NC(=O)C(C(C)C)N(C)C(=O)C3(F)CCN(C(=O)C#CC(C)(C)N(C)C)CC3)C(=O)N3CCCC(N3)C(=O)OCC(C)(C)C2)C1, which IC50 (second compound 0.000949 µM) is on record?
A: < 31.6 nM

Q: And the IC50 (second compound 0.003 µM)?
A: < 31.6 nM

Q: What about the IC50 (second compound 0.00949 µM) of the same compound?
A: < 31.6 nM

Q: What about the IC50 (second compound 0.03 µM) of the same compound?
A: < 31.6 nM

Q: What about the IC50 (second compound 0.0949 µM) of the same compound?
A: < 31.6 nM

Q: And the IC50 (second compound 0.3 µM)?
A: < 31.6 nM

Q: What about the viability, T/C (second compound 0.000949 µM, first compound 0.0316 µM) of the same compound?
A: 5.96%

Q: What about the viability, T/C (second compound 0.000949 µM, first compound 0.1 µM) of the same compound?
A: 11.7%

Q: And the viability, T/C (second compound 0.000949 µM, first compound 0.316 µM)?
A: 9.08%

Q: And the viability, T/C (second compound 0.000949 µM, first compound 1 µM)?
A: 14.2%

Q: What about the viability, T/C (second compound 0.000949 µM, first compound 3.16 µM) of the same compound?
A: 38%

Q: What about the viability, T/C (second compound 0.000949 µM, first compound 10 µM) of the same compound?
A: 61.4%

Q: What about the viability, T/C (second compound 0.003 µM, first compound 0.0316 µM) of the same compound?
A: 5.16%

Q: And the viability, T/C (second compound 0.003 µM, first compound 0.1 µM)?
A: 12.8%

Q: What about the viability, T/C (second compound 0.003 µM, first compound 0.316 µM) of the same compound?
A: 11%

Q: And the viability, T/C (second compound 0.003 µM, first compound 1 µM)?
A: 16.3%

Q: What about the viability, T/C (second compound 0.003 µM, first compound 3.16 µM) of the same compound?
A: 32.3%

Q: And the viability, T/C (second compound 0.003 µM, first compound 10 µM)?
A: 52%

Q: What about the viability, T/C (second compound 0.00949 µM, first compound 0.0316 µM) of the same compound?
A: 4.31%

Q: And the viability, T/C (second compound 0.00949 µM, first compound 0.1 µM)?
A: 11.3%

Q: What about the viability, T/C (second compound 0.00949 µM, first compound 0.316 µM) of the same compound?
A: 10.9%

Q: And the viability, T/C (second compound 0.00949 µM, first compound 1 µM)?
A: 16.3%

Q: What about the viability, T/C (second compound 0.00949 µM, first compound 3.16 µM) of the same compound?
A: 25.2%

Q: And the viability, T/C (second compound 0.00949 µM, first compound 10 µM)?
A: 59.7%

Q: And the viability, T/C (second compound 0.03 µM, first compound 0.0316 µM)?
A: 2.88%

Q: What about the viability, T/C (second compound 0.03 µM, first compound 0.1 µM) of the same compound?
A: 3.54%

Q: What about the viability, T/C (second compound 0.03 µM, first compound 0.316 µM) of the same compound?
A: 8.87%

Q: What about the viability, T/C (second compound 0.03 µM, first compound 1 µM) of the same compound?
A: 10.5%

Q: What about the viability, T/C (second compound 0.03 µM, first compound 3.16 µM) of the same compound?
A: 20.4%

Q: What about the viability, T/C (second compound 0.03 µM, first compound 10 µM) of the same compound?
A: 49.5%

Q: And the viability, T/C (second compound 0.0949 µM, first compound 0.0316 µM)?
A: 2.26%

Q: What about the viability, T/C (second compound 0.0949 µM, first compound 0.1 µM) of the same compound?
A: 4.26%

Q: What about the viability, T/C (second compound 0.0949 µM, first compound 0.316 µM) of the same compound?
A: 3.62%

Q: What about the viability, T/C (second compound 0.0949 µM, first compound 1 µM) of the same compound?
A: 4.99%

Q: And the viability, T/C (second compound 0.0949 µM, first compound 3.16 µM)?
A: 16.5%

Q: What about the viability, T/C (second compound 0.0949 µM, first compound 10 µM) of the same compound?
A: 26.8%

Q: What about the viability, T/C (second compound 0.3 µM, first compound 0.0316 µM) of the same compound?
A: 1.97%

Q: What about the viability, T/C (second compound 0.3 µM, first compound 0.1 µM) of the same compound?
A: 3.21%

Q: And the viability, T/C (second compound 0.3 µM, first compound 0.316 µM)?
A: 4.05%

Q: And the viability, T/C (second compound 0.3 µM, first compound 1 µM)?
A: 4.51%

Q: What about the viability, T/C (second compound 0.3 µM, first compound 3.16 µM) of the same compound?
A: 7.84%

Q: What about the viability, T/C (second compound 0.3 µM, first compound 10 µM) of the same compound?
A: 9.46%
